Test results as given in patent publication US4642332A, “Effective hormonal peptides: D-3-Pal^6 -LHRH” (The Board of Regents, The University of Texas System, priority 1985, dated 1987).

Columns and labels:
[1] = test system: pituitary cells from 21 day old rats; test: In vitro pituitary incubate assay (release of LH and FSH); format: cell-based, rat; settings: for FSH ng/ml medium ± SEM / LH ng/ml medium ± SEM: Table V, mean of 9
Description: The data in Tables IV and V are from the in vitro assay of the peptides with the pituitary incubate. This assay measures the release of LH and FSH in an in vitro system with pituitary cells from 21 day old rats. See, Bowers, C. Y. et al. on the inhibitory effects of leutinizing hormone releasing hormone analogs. Endocrinology, 106: 674 (1980).
The abbreviations are as follows: sc-subcutaneous, SEM-standard error of the mean; NS-not significant; ng-nanogram, and ml-milliliter. The p value represents the population coefficient .rho.(rho) which signifies whether a sample coefficient is significant or a chance deviation from zero.

21 day old female rats = test: In vivo assay in rats for release of LH and FSH; set-up: species or system rat
Description: In vivo rat assay performed by a modification of the method of Bowers, C. Y. et al. Endocrinology, 106, 674 (1980). 21 day old female rats were injected sc with saline or peptide. Blood samples for the RIAs of LH and FSH were collected at +15, +60, +120, or +180 minutes. (Tables VI-XI).

men = settings: in men, after chronic administration; cited from earlier work
[2] = test system: advanced prostatic carcinoma; set-up: clinical effect in patients with urinary obstruction: dose or concentration left out as unconfirmed; settings: subcutaneously, cited from earlier work
[3] = Table XI, 150 ng sc, +2 hrs, mean 5-6
[4] = Table XI, 150 ng sc, +3 hrs, mean 5-6

## CC(C)C[C@H](NC(=O)[C@@H](Cc1c[nH]c2ccccc12)NC(=O)[C@H](Cc1ccc(O)cc1)NC(=O)[C@H](CO)NC(=O)[C@H](Cc1c[nH]c2ccccc12)NC(=O)[C@H](Cc1c[nH]cn1)NC(=O)[C@@H]1CCC(=O)N1)C(=O)N[C@@H](CCCNC(=N)N)C(=O)N1CCC[C@H]1C(=O)NCC(N)=O [D-Trp^6 -LHRH, pyroGlu--His--Trp--Ser--Tyr--D-Trp--Leu--Arg--Pro--Gly--NH2]
[1]; dosage .01 ng/ml medium
  FSH ng/ml medium ± SEM: 450 ± 64 ng/mL
  LH ng/ml medium ± SEM: 68 ± 31 ng/mL
[1]; dosage .03 ng/ml medium
  FSH ng/ml medium ± SEM: 929 ± 207 ng/mL
  LH ng/ml medium ± SEM: 209 ± 74 ng/mL
[1]; dosage .10 ng/ml medium
  FSH ng/ml medium ± SEM: 1714 ± 224 ng/mL
  LH ng/ml medium ± SEM: 646 ± 69 ng/mL
[1]; comparable assays, statement in words
  potency, D-Qal^6 -LHRH compared with D-Trp^6 -LHRH: essentially equipotent
21 day old female rats; Table VII, dosage 10 mg/rat sc (so in the source)
  LH ng/ml Serum ± SEM ± 60 min: 31 ± 6 ng/mL
21 day old female rats; Table VII, dosage 100 mg/rat sc (so in the source), ± 15 min
  LH ng/ml Serum ± SEM ± 15 min: 51 ± 10 ng/mL
21 day old female rats; Table VII, dosage 100 mg/rat sc (so in the source)
  LH ng/ml Serum ± SEM ± 60 min: 259 ± 34 ng/mL
21 day old female rats; [3]
  +2 hrs LH ± SEM ng/ml serum: 230 ± 41 ng/mL
  FSH ± SEM ng/ml serum (+2 hrs): 2332 ± 388 ng/mL
21 day old female rats; [4]
  +3 hrs LH ± SEM ng/ml serum: 117 ± 9 ng/mL
  FSH ± SEM ng/ml serum (+3 hrs): 2065 ± 151 ng/mL
men
  Leydig cell function: suppression of Leydig cell function
  serum levels of testosterone, dihydrotestosterone and estradiol: decreases
[2]; daily doses (so in the source)
  clinical effect in patients with urinary obstruction: noticeable clinical improvement
[2]; daily doses of 100 g and 50 g, respectively (so in the source)
  pain from bone metastases in patients with more advanced prostatic disease: relieved
